The source of these data is ChEMBL document CHEMBL4613242, “Thiopeptide Defense by an Ant's Bacterial Symbiont” (2020).

Common to all, as to format: functional
The test system of one assay is Trichoderma harzianum. In words: Antimicrobial activity against Trichoderma harzianum T22 at 0.1 ug measured on day 5 by agar diffusion assay. The conditions noted are these: T22, 120 h, read-out: DIZ.
In the next assay the test system is Bacillus subtilis. Description: Antimicrobial activity against Bacillus subtilis 3610 at 0.1 ug measured at 24 hrs by agar diffusion assay. The conditions noted are these: Bacillus subtilis, 3610, 24 h; read-out: DIZ.
The test system of assay [1] is Pseudonocardia. Description: Antimicrobial activity against Pseudonocardia 18PO-3 at 0.1 ug measured on day 5 by agar diffusion assay. Particulars: 18PO-3, 120 h, read-out: DIZ. (In general: A growth-free zone around the sample is the usual read-out of agar diffusion tests.)
Assay [2] deals with Pseudonocardia. Description: Antimicrobial activity against Pseudonocardia 18AZ-4 at 0.1 ug measured on day 5 by agar diffusion assay. Particulars: 18AZ-4, 120 h, read-out: DIZ.
For assay [3], the system named is Pseudonocardia. In words: Antimicrobial activity against Pseudonocardia PLR1 at 0.1 ug measured on day 5 by agar diffusion assay. The conditions noted are these: PLR1, 120 h, read-out: DIZ.
For assay [4], the system named is Pseudonocardia. In words: Antimicrobial activity against Pseudonocardia 17SE-8 at 0.1 ug measured on day 5 by agar diffusion assay. The conditions noted are these: 17SE-8, 120 h, read-out: DIZ.
Assay [5] concerns Pseudonocardia. In words: Antimicrobial activity against Pseudonocardia 17SM-1 at 0.1 ug measured on day 5 by agar diffusion assay. Particulars: 17SM-1, 120 h, read-out: DIZ.
The test system of a further assay is Candida albicans. Description: Antimicrobial activity against Candida albicans SC5314 at 0.1 ug measured at 24 hrs by agar diffusion assay. The conditions noted are these: SC5314, 24 h, read-out: DIZ.
For the next assay, the system named is Escovopsis sp. In words: Antimicrobial activity against Escovopsis sp. at 0.1 ug measured on day 5 by agar diffusion assay. The conditions noted are these: 120 h, read-out: DIZ.
In assay [6] the test system is Pseudonocardia. In words: Antimicrobial activity against Pseudonocardia 17SE-10 at 0.1 ug measured on day 5 by agar diffusion assay. The conditions noted are these: 17SE-10, 120 h, read-out: DIZ.
Assay [7] concerns Pseudonocardia. Description: Antimicrobial activity against Pseudonocardia 17SE-9 at 0.1 ug measured on day 5 by agar diffusion assay. Particulars: 17SE-9, 120 h, read-out: DIZ.

Each structure is given as a SMILES string.

As for `C=C(NC(=O)C(=C)NC(=O)c1csc(-c2ccc3c(n2)-c2csc(n2)-c2csc(n2)[C@@H]2C(C)C[C@H](O)N2C(=O)[C@H](Cc2ccc(O)cc2)NC(=O)C2CSC(=N2)[C@H](Cc2ccccc2)NC(=O)c2csc(n2)[C@H](CC(N)=O)NC(=O)c2nc-3oc2C)n1)C(=O)O` (stereo partly specified), the zone of inhibition at 0.1 µg/disc with Trichoderma harzianum is 0 mm; in the assay with Bacillus subtilis it was 9.7 mm; in the assay with Pseudonocardia [1], 20 mm; with Pseudonocardia [2] it was 23 mm; with Pseudonocardia [3] it was 18 mm; with Pseudonocardia [4], 18.7 mm. The zone of inhibition at 0.1 µg/disc in the assay with Pseudonocardia [5] amounted to 28.3 mm; in the assay on Candida albicans, 0 mm; with Escovopsis sp., 0 mm; with Pseudonocardia [6] it was 13.7 mm; with Pseudonocardia [7], 0 mm.
